Assay results: publication PMC6514978, “Synthesis, Antibacterial Activities, Mode of Action and Acute Toxicity Studies of New Oxazolidinone-Fluoroquinolone Hybrids” (Molecules, 2019)
Values after ≈ are worked out from the molar mass of the structure shown.

How the values were obtained:
[1] = system: S. agalactiae^R (13B317), levofloxacin-resistant S. agalactiae; assay: MIC, broth microdilution (CLSI), clinical isolate; assay type: cell-based; details: Streptococcus agalactiae; levofloxacin-resistant S. agalactiae (13B317)
Excerpt: (§1) 6 standard strains and 3 clinical isolates were used to the preliminary evaluation of in vitro antibacterial activities of oxazolidinone-fluoroquinolone hybrids. For the further evaluation of hybrids OBP-4 and OBP-5, 263 clinical isolates including S. aureus (46), S. haemolyticus(32), S. epidermidis (10), E. faecalis (72), E. faecium (47), S. pneumoniae (13), H. parasuis (34), S. suis (9), and 8 resistant strains including MRSA, MRSE, CIP-resistant S. aureus and S. haemolyticus, VAN and quinolone-resistant S. pneumoniae, LZD-resistant E. faecalis, LZD/VAN and quinolone-resistant E. faecium were collected and tested.
(§2) Susceptibility testing of oxazolidinone-fluoroquinolone hybrids against various bacteria was performed by the broth microdilution method as outlined by the Clinical and Laboratory Standards Institute (CLSI). Three types of media, including cation-adjusted Mueller Hinton broth, Haemophilus Test Medium and cation-adjusted Mueller Hinton broth that contained 3%–5% lysed horse blood, were used to culture the corresponding bacteria. All compounds including comparator drugs were dissolved in an appropriate solvent at a concentration of 2.048 mg/mL and then serially diluted two-fold to provide the required concentrations. A final inoculum of 5 × 10^5 CFU/mL was used and plates were read after incubation for 16–24 h at 35 °C. […] Standard quality control strains (ATCC) were included throughout. Each determination was repeated in triplicate.

MRSA (13B262) = assay: MIC, broth microdilution (CLSI), clinical isolate; assay type: cell-based; details: Staphylococcus aureus
Excerpt: as §1, §2

[2] = system: S. epidermidis (10) clinical isolates; assay: Susceptibility of clinical isolates (MIC); assay type: cell-based, Staphylococcus epidermidis
Procedure: as §2, with “All compounds including comparator drugs were dissolved in an appropriate solvent at a concentration of 2.048 mg/mL and then serially diluted two-fold to provide the required concentrations.” left out

[3] = system: E. faecalis (72) clinical isolates; assay: Susceptibility of clinical isolates (MIC); assay type: cell-based, Enterococcus faecalis
Procedure: as §2, with “All compounds including comparator drugs were dissolved in an appropriate solvent at a concentration of 2.048 mg/mL and then serially diluted two-fold to provide the required concentrations.” left out

[4] = system: S. aureus (46) clinical isolates; assay: Susceptibility of clinical isolates (MIC); assay type: cell-based, Staphylococcus aureus
Procedure: as §2, with “All compounds including comparator drugs were dissolved in an appropriate solvent at a concentration of 2.048 mg/mL and then serially diluted two-fold to provide the required concentrations.” left out

[5] = system: S. suis (9) clinical isolates; assay: Susceptibility of clinical isolates (MIC); assay type: cell-based, Streptococcus suis; details: Streptococcus suis, S. suis, 9 clinical isolates
Procedure: as §2, with “All compounds including comparator drugs were dissolved in an appropriate solvent at a concentration of 2.048 mg/mL and then serially diluted two-fold to provide the required concentrations.” left out

E. faecalis (ATCC29212) = assay: MIC, broth microdilution (CLSI), standard strain; assay type: cell-based; details: Enterococcus faecalis; E. faecalis (ATCC29212); read-out: MIC
Excerpt: as §1, §2

S. aureus (ATCC29213) = assay: MIC, broth microdilution (CLSI), standard strain; assay type: cell-based; details: Staphylococcus aureus
Excerpt: as §1, §2

E. coli (ATCC25922) = assay: MIC, broth microdilution (CLSI), standard strain; assay type: cell-based; details: Escherichia coli, ATCC25922
Excerpt: as §1, §2

[6] = system: P. Aeruginosa (ATCC27853); assay: MIC, broth microdilution (CLSI), standard strain; assay type: cell-based; details: Pseudomonas aeruginosa, ATCC27853
Excerpt: as §1, §2

[7] = system: H. influenzae (ATCC49247); assay: MIC, broth microdilution (CLSI), standard strain; assay type: cell-based; details: Haemophilus influenzae
Excerpt: as §1, §2

[8] = system: S. pneumoniae (13) clinical isolates; assay: Susceptibility of clinical isolates (MIC); assay type: cell-based, Streptococcus pneumoniae
Procedure: as §2, with “All compounds including comparator drugs were dissolved in an appropriate solvent at a concentration of 2.048 mg/mL and then serially diluted two-fold to provide the required concentrations.” left out

[9] = system: S. haemolyticus (32) clinical isolates; assay: Susceptibility of clinical isolates (MIC); assay type: cell-based, Staphylococcus haemolyticus
Procedure: as §2, with “All compounds including comparator drugs were dissolved in an appropriate solvent at a concentration of 2.048 mg/mL and then serially diluted two-fold to provide the required concentrations.” left out

[10] = system: CIP-resistant S. haemolyticus; assay: MIC against drug-resistant strain; assay type: cell-based; details: Staphylococcus haemolyticus; S. haemolyticus, CIP-resistant; read-out: MIC
Procedure: (§3) 6 standard strains and 3 clinical isolates were used to the preliminary evaluation of in vitro antibacterial activities of oxazolidinone-fluoroquinolone hybrids.
as §2, with “All compounds including comparator drugs were dissolved in an appropriate solvent at a concentration of 2.048 mg/mL and then serially diluted two-fold to provide the required concentrations.” left out

[11] = system: VAN and quinolone-resistant S. pneumoniae; assay: MIC against drug-resistant strain; assay type: cell-based; details: Streptococcus pneumoniae; S. pneumoniae, VAN and quinolone-resistant; read-out: MIC
Procedure: as §3
as §2, with “All compounds including comparator drugs were dissolved in an appropriate solvent at a concentration of 2.048 mg/mL and then serially diluted two-fold to provide the required concentrations.” left out

[12] = system: VAN and quinolone-resistant E. faecium; assay: MIC against drug-resistant strain; assay type: cell-based; details: Enterococcus faecium; E. faecium, VAN and quinolone-resistant; read-out: MIC
Procedure: as §3
as §2, with “All compounds including comparator drugs were dissolved in an appropriate solvent at a concentration of 2.048 mg/mL and then serially diluted two-fold to provide the required concentrations.” left out

CIP-resistant S. aureus = assay: MIC against drug-resistant strain; assay type: cell-based; details: Staphylococcus aureus; S. aureus, CIP-resistant; read-out: MIC
Procedure: as §3
as §2, with “All compounds including comparator drugs were dissolved in an appropriate solvent at a concentration of 2.048 mg/mL and then serially diluted two-fold to provide the required concentrations.” left out

[13] = system: LZD and quinolone-resistant E. faecium; assay: MIC against drug-resistant strain; assay type: cell-based; details: Enterococcus faecium; E. faecium, LZD and quinolone-resistant; read-out: MIC
Procedure: as §3
as §2, with “All compounds including comparator drugs were dissolved in an appropriate solvent at a concentration of 2.048 mg/mL and then serially diluted two-fold to provide the required concentrations.” left out

MRSA = assay: MIC against drug-resistant strain; assay type: cell-based; details: Staphylococcus aureus, read-out: MIC
Procedure: as §3
as §2, with “All compounds including comparator drugs were dissolved in an appropriate solvent at a concentration of 2.048 mg/mL and then serially diluted two-fold to provide the required concentrations.” left out

[14] = E. faecalis clinical isolates, CLSI criteria
[15] = Enterococcus faecalis, E. faecalis, 72 clinical isolates
[16] = S. haemolyticus clinical isolates, CLSI criteria

In the case of CC(=O)NC[C@H]1CN(c2ccc(N3CCOCC3)c(F)c2)C(=O)O1 [LZD, linezolid, reference compound], the MIC [1] is reported as 1 µg/mL (≈ 2.96 µM), the MIC (MRSA (13B262)) is reported as 4 µg/mL (≈ 11.9 µM) and the “CLSI %S (susceptible)” value ([2]; S. epidermidis clinical isolates, CLSI criteria) is reported as 100.0/- %. The MIC50 ([2]; Staphylococcus epidermidis, S. epidermidis, 10 clinical isolates, read-out: MIC50) was 1 µg/mL (≈ 2.96 µM), the MIC90 ([2]; Staphylococcus epidermidis, S. epidermidis, 10 clinical isolates, read-out: MIC90) was 1 µg/mL (≈ 2.96 µM) and the MIC ([2]; Staphylococcus epidermidis, S. epidermidis, 10 clinical isolates, read-out: MIC Range) was 0.5 to 1 µg/mL (≈ 1.48 to 2.96 µM). The “CLSI %R (resistant)” value [3, 14] was 2.7%, the “CLSI %S (susceptible)” value [3, 14] was 97.3% and the “MIC Range” value ([3]; E. faecalis, 72 clinical isolates) was 0.5 to 8 µg/mL. The MIC50 [3, 15] was 2 µg/mL (≈ 5.93 µM), the MIC90 [3, 15] was 2 µg/mL (≈ 5.93 µM) and the “CLSI %S (susceptible)” value ([4]; S. aureus clinical isolates, CLSI criteria) was 100.0/- %. For the same compound, the MIC50 ([4]; Staphylococcus aureus, S. aureus, 46 clinical isolates, read-out: MIC50) was 2 µg/mL (≈ 5.93 µM), the MIC90 ([4]; Staphylococcus aureus, S. aureus, 46 clinical isolates, read-out: MIC90) was 2 µg/mL (≈ 5.93 µM) and the MIC ([4]; Staphylococcus aureus, S. aureus, 46 clinical isolates, read-out: MIC Range) was 0.5 to 2 µg/mL (≈ 1.48 to 5.93 µM). For the same compound, the MIC50 ([5]; read-out: MIC50) was 0.5 µg/mL (≈ 1.48 µM), the MIC90 ([5]; read-out: MIC90) was 4 µg/mL (≈ 11.9 µM) and the MIC ([5]; read-out: MIC Range) was 0.5 to 4 µg/mL (≈ 1.48 to 11.9 µM). It also gave an MIC (E. faecalis (ATCC29212)) of 4 µg/mL (≈ 11.9 µM), an MIC (S. aureus (ATCC29213)) of 4 µg/mL (≈ 11.9 µM) and an MIC (E. coli (ATCC25922)) of 128 µg/mL (≈ 379 µM). The MIC [6] was 128 µg/mL (≈ 379 µM), the MIC [7] was 8 µg/mL (≈ 23.7 µM) and the “CLSI %S (susceptible)” value ([8]; S. pneumoniae clinical isolates, CLSI criteria) was 76.9/- %. For the same compound, the “MIC Range” value ([8]; S. pneumoniae, 13 clinical isolates) was 0.5 to 4 µg/mL, the MIC50 ([8]; Streptococcus pneumoniae, S. pneumoniae, 13 clinical isolates, read-out: MIC50) was 0.5 µg/mL (≈ 1.48 µM) and the MIC90 ([8]; Streptococcus pneumoniae, S. pneumoniae, 13 clinical isolates, read-out: MIC90) was 0.5 µg/mL (≈ 1.48 µM). The “CLSI %R (resistant)” value [9, 16] was 3.8%, the “CLSI %S (susceptible)” value [9, 16] was 96.2% and the MIC50 ([9]; Staphylococcus haemolyticus, S. haemolyticus, 32 clinical isolates, read-out: MIC50) was 0.5 µg/mL (≈ 1.48 µM). For the same compound, the MIC90 ([9]; Staphylococcus haemolyticus, S. haemolyticus, 32 clinical isolates, read-out: MIC90) was 2 µg/mL (≈ 5.93 µM), the MIC ([9]; Staphylococcus haemolyticus, S. haemolyticus, 32 clinical isolates, read-out: MIC Range) was 0.125 to 8 µg/mL (≈ 0.371 to 23.7 µM) and the MIC [10] was 8 µg/mL (≈ 23.7 µM). It also gave an MIC [11] of 0.5 µg/mL (≈ 1.48 µM), an MIC [12] of 2 µg/mL (≈ 5.93 µM) and an MIC (CIP-resistant S. aureus) of 2 µg/mL (≈ 5.93 µM). The MIC [13] was 16 µg/mL (≈ 47.4 µM) and the MIC (MRSA) was 4 µg/mL (≈ 11.9 µM).
